Patent US7173027B2, “Receptor selective cannabimimetic aminoalkylindoles” (University of Connecticut, priority 2001, dated 2007)
Where two headings read alike, the source gives them in different places.

Experiments:
CB1 receptor = biological target: T1, CB1 receptor (Rattus norvegicus, UniProt P20272); assay: CB1 receptor binding, rat forebrain membranes, [3H]CP-55,940 displacement
T1 construct: membranes were prepared from rat forebrain membranes; from tissue; host or cells: rat forebrain membranes
T1 sequence (P20272 whole entry): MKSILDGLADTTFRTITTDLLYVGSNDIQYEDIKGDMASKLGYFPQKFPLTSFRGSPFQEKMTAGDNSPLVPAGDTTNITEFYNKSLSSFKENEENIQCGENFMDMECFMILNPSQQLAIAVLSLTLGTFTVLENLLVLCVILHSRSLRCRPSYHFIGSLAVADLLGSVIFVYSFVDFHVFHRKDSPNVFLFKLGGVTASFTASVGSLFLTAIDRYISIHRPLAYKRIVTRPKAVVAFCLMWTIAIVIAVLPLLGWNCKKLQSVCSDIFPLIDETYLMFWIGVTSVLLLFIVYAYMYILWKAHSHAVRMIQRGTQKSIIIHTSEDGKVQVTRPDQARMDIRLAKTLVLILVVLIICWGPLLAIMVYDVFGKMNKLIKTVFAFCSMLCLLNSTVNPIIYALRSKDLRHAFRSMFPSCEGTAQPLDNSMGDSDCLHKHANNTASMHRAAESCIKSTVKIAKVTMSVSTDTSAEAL
Method: (§1) The prepared cannabinoid compounds were tested for CB2 receptor binding affinity and for CB1 receptor affinity (to determine selectivity for the CB2 receptor). As used herein, “binding affinity” is represented by the IC50 value which is the concentration of an analog required to occupy the 50% of the total number (Bmax) of the receptors. The lower the IC50 value, the higher the binding affinity. […] The binding affinities (Ki) are expressed in nanomoles (nM).
For the CB1 receptor-binding studies, membranes were prepared from rat forebrain membranes according to the procedure of P. R. Dodd et al; A Rapid Method for Preparing Synaptosomes: Comparison with Alternative Procedures, Brain Res., 107–118 (1981). The binding of the novel analogues to the CB1 cannabinoid receptor was assessed as described in W. A. Devane et al; Determination and Characterization of a Cannabinoid Receptor in a Rat Brain, Mol. Pharmacol., 34, 605–613 (1988) and A. Charalambous et al; “5′-azido ^8−-THC: A Novel Photoaffinity Label for the Cannabinoid Receptor”, J. Med. Chem., 35, 3076–3079 (1992) with the following changes. The above articles are incorporated by reference herein.
Membranes, previously frozen at −80° C., were thawed on ice. To the stirred suspension was added three volumes of TME (25 mM Tris-HCl buffer, 5 mM MgCl2 and 1 mM EDTA) at a pH 7.4.The suspension was incubated at 4° C. for 30 min. At the end of the incubation, the membranes were pelleted and washed three times with TME.
(§2) The treated membranes were subsequently used in the binding assay described below. Approximately 30 μg of membranes were incubated in silanized 96-well microtiter plate with TME containing 0.1% essentially fatty acid-free bovine serum albumin (BSA), 0.8 nM [^3H] CP-55,940, and various concentrations of test materials at 30° C. for 1 hour. The samples were immediately filtered using a Packard Filtermate 196 and Whatman GF/C filterplates and washed with wash buffer (TME) containing 0.5% BSA. Radioactivity was detected using MicroScint 20 scintillation cocktail added directly to the dried filterplates, and the filterplates were counted using a Packard Instruments Top-Count. Nonspecific binding was assessed using 100 nM CP-55,940. Data collected from three independent experiments performed with duplicate determinations was normalized between 100% and 0% specific binding for [^3H] CP-55,940, determined using buffer and 100 nM CP-55,940.The normalized data was analyzed using a 4-parameter nonlinear logistic equation to yield IC50 values. Data from at least two independent experiments performed in duplicate was used to calculate IC50 values which were converted to Ki values using the using the assumptions of Cheng et al; “Relationship Between the Inhibition Constant (Ki) and the concentration of Inhibitor which causes 50% Inhibition (IC50) of an Enzymatic Reaction”, Biochem. Pharmacol., 22, 3099–3102, (1 973), which is incorporated by reference herein.

CB2 receptor = biological target: T2, CB2 receptor (Mus musculus, UniProt P47936); assay: CB2 receptor binding, mouse spleen membranes, [3H]CP-55,940 displacement; settings: for Ki: mouse spleen membranes
T2 construct: membranes were prepared from frozen mouse spleen; from tissue; host or cells: frozen mouse spleen membranes
T2 sequence (P47936 whole entry): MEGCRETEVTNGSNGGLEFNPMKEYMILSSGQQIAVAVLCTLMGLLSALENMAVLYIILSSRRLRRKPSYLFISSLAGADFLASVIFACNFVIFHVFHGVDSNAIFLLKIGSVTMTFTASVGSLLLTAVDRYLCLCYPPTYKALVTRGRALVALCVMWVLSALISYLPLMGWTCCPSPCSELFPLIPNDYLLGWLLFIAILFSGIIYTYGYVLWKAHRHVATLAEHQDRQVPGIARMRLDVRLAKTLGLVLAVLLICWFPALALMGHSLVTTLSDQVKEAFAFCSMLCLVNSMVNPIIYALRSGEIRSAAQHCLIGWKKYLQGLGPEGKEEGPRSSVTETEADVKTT
Method: as §1, §2
For the CB2 receptor binding studies, membranes were prepared from frozen mouse spleen essentially according to the procedure of P. R. Dodd et al; “A Rapid Method for Preparing Synaptosomes: Comparison with Alternative Procedures”, Brain Res., 226, 107–118 (1981) which is incorporated by reference herein. Silanized centrifuge tubes were used throughout to minimize receptor loss due to adsorption. The CB2 binding assay was conducted in the same manner as the CB1 binding assay. The binding affinities (Ki) were also expressed in nanomoles (nM).

human CB2 receptors = biological target: T3, human CB2 receptors (Homo sapiens, UniProt P34972); assay: Binding affinity to human CB2 receptors, human tissue samples
T3 construct: using the below described procedure with human tissue samples; from tissue
T3 sequence (P34972 whole entry): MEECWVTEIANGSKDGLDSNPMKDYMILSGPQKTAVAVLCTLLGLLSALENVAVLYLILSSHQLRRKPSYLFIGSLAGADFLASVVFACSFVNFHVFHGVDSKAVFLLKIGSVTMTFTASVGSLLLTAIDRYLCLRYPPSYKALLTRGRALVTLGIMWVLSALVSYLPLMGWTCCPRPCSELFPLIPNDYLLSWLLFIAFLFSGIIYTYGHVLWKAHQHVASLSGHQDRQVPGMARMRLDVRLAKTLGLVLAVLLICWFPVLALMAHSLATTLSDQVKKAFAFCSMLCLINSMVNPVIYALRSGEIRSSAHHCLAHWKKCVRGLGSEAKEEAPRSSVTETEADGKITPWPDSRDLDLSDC

[1] = Table 2, 0.8 nM [3H]CP-55,940, read-out: Ki nM CB1
[2] = Table 2, human CB2, read-out: Ki nM CB2 (Human)
[3] = Table 1, 0.8 nM [3H]CP-55,940, read-out: Ki nM CB1
[4] = Ki nM CB1, Table 2, 0.8 nM [3H]CP-55,940

`CN1CCCCC1Cn1cc(C(=O)c2cncc3ccccc23)c2ccccc21` (stereo not drawn) [2-44] showed a Ki (CB1 receptor; [1]) of 16.9 nM and a Ki (CB2 receptor; Table 2, read-out: Ki nM CB2) of 7.04 nM.
For `CN1CCCCC1Cn1cc(C(=O)c2ccccn2)c2ccccc21` (stereo not drawn) [2-42], the Ki (CB1 receptor; [1]) was 421 nM and the Ki (CB2 receptor; Table 2, read-out: Ki nM CB2) was 147 nM.
In the case of `CN1CCCCC1Cn1cc(C(=O)c2cc(C(N)=O)ccc2I)c2ccccc21` (stereo not drawn) [2-48], the Ki (CB1 receptor; [1]) is reported as 390 nM and the Ki (CB2 receptor; Table 2, read-out: Ki nM CB2) is reported as 47.2 nM.
In the case of `CN1CCCCC1Cn1cc(C(=O)c2ccccc2I)c2ccccc21` (racemic) [2-34(R,S)], the Ki (human CB2 receptors; [2]) is reported as 2.49 nM and the Ki (CB1 receptor; [1]) is reported as 2.89 nM.
With `CN1CCCCC1Cn1cc(C(=O)c2cc([N+](=O)[O-])ccc2I)c2ccccc21` (racemic) [2-7(R, S)] the Ki (human CB2 receptors; Table 1, human CB2, human tissue samples, read-out: Ki nM CB2 (human)) was 1.6 nM, the “binding affinity to human CB2 receptors (in words)” value (human CB2 receptors; human tissue samples) was “surprisingly potent cannabinoid” and the Ki (CB1 receptor; [3]) was 403 nM. For the same compound, the “selectivity for the CB2 receptor (in words)” value (CB2 receptor; CB2 versus CB1 binding) was “high selectivity for the CB2 receptor” and the Ki (CB2 receptor; Table 1, read-out: Ki nM CB2) was 5.7 nM.
Work on `CN1CCCC[C@@H]1Cn1cc(C(=O)c2cc([N+](=O)[O-])ccc2I)c2ccccc21` [2-32(R)] yielded a Ki (human CB2 receptors) of 6.69 nM, a Ki (CB1 receptor; [4]) of 140 nM and a Ki (CB2 receptor; Ki nM CB2, Table 2) of 1.42 nM.
With `CN1CCCCC1Cn1cc(C(=O)c2ccnc3ccccc23)c2ccccc21` (stereo not drawn) [2-38] the Ki (CB1 receptor; [1]) was 719 nM and the Ki (CB2 receptor; Table 2, read-out: Ki nM CB2) was 747 nM.
`O=C(c1cc([N+](=O)[O-])ccc1I)c1cn(CC2COCCN2Cc2ccccc2)c2ccccc12` (stereo not drawn) [2-26] showed a Ki (CB1 receptor; [1]) of 4210 nM and a Ki (CB2 receptor; Table 2, read-out: Ki nM CB2) of 1430 nM.
`CN1CCOCC1Cn1cc(C(=O)c2cc([N+](=O)[O-])ccc2I)c2ccccc21` (stereo not drawn) [2-29] showed a Ki (CB1 receptor; [1]) of 848 nM and a Ki (CB2 receptor; Table 2, read-out: Ki nM CB2) of 48.4 nM.
`CN1CCCC[C@@H]1Cn1cc(C(=O)c2ccccc2I)c2ccccc21` [2-34(R)] showed a Ki (CB1 receptor; [4]) of 1.57 nM.
Compound `CN1CCCCC1Cn1cc(C(=O)c2cnc3ccccc3n2)c2ccccc21` (stereo not drawn) [2-41] has a Ki (CB1 receptor; [1]) of 158 nM and a Ki (CB2 receptor; Table 2, read-out: Ki nM CB2) of 160 nM.
Work on `CN1CCOCC1Cn1cc(C(=O)c2cccc([N+](=O)[O-])c2I)c2ccccc21` (stereo not drawn) [2-30] yielded a Ki (CB1 receptor; [1]) of 464 nM and a Ki (CB2 receptor; Table 2, read-out: Ki nM CB2) of 154 nM.
`CN1CCCCC1Cn1cc(C(=O)c2cc(C#N)ccc2I)c2ccccc21` (stereo not drawn) [2-45] was tested, and the Ki (CB1 receptor; [1]) was 418 nM and the Ki (CB2 receptor; Table 2, read-out: Ki nM CB2) was 15.8 nM.
Compound `CN1CCOCC1Cn1cc(C(=O)c2ccccc2I)c2ccccc21` (stereo not drawn) [2-28] has a Ki (CB1 receptor; [1]) of 27.9 nM and a Ki (CB2 receptor; Table 2, read-out: Ki nM CB2) of 226 nM.
`CN1CCCCC1Cn1cc(C(=O)C23CC4CC(CC(C4)C2)C3)c2ccccc21` (stereo not drawn) [2-33, 1-(N-Methyl-2-piperidinyl)methyl-3-(1-adamantanecarbonyl)-1H-indole] gave a Ki (human CB2 receptors) of 2.32 nM, a Ki (CB1 receptor; [4]) of 11.9 nM and a Ki (CB2 receptor; Ki nM CB2, Table 2) of 4.8 nM.
For `CN1CCCCC1Cn1cc(C(=O)c2cc([N+](=O)[O-])ccc2I)c2ccccc21` (racemic) [2-32(R,S)], the Ki (human CB2 receptors; [2]) was 13.6 nM, the Ki (CB1 receptor; [1]) was 239 nM and the Ki (CB2 receptor; Table 2, read-out: Ki nM CB2) was 3.41 nM.
`O=C(c1cccc([N+](=O)[O-])c1I)c1cn(CC2COCCN2Cc2ccccc2)c2ccccc12` (stereo not drawn) [2-27] gave a Ki (CB1 receptor; [1]) of 2380 nM and a Ki (CB2 receptor; Table 2, read-out: Ki nM CB2) of 928 nM.
`CN1CCCC[C@H]1Cn1cc(C(=O)c2ccccc2I)c2ccccc21` [2-24(S)] showed a Ki (CB1 receptor; [3]) of 561 nM.
For `CN1CCCCC1Cn1cc(C(=O)c2cccs2)c2ccccc21` (stereo not drawn) [2-39], the Ki (CB1 receptor; [1]) was 41.4 nM and the Ki (CB2 receptor; Table 2, read-out: Ki nM CB2) was 19.5 nM.
`CN1CCCC[C@@H]1Cn1cc(C(=O)c2ccccc2I)c2ccccc21` [2-24(R)] was tested, and the Ki (CB1 receptor; [3]) was 1.8 nM.
Work on `CN1CCCCC1Cn1cc(C(=O)c2ccc3ccccc3n2)c2ccccc21` (stereo not drawn) [2-35] yielded a Ki (CB1 receptor; [1]) of 14.4 nM and a Ki (CB2 receptor; Table 2, read-out: Ki nM CB2) of 20.9 nM.
`CN1CCCC[C@H]1Cn1cc(C(=O)c2ccccc2I)c2ccccc21` [2-34(S)] was tested, and the Ki (CB1 receptor; [4]) was 14.2 nM.
In the case of `O=C(c1ccccc1I)c1cn(CC2COCCN2Cc2ccccc2)c2ccccc12` (stereo not drawn) [2-25], the Ki (CB1 receptor; [1]) is reported as 1220 nM and the Ki (CB2 receptor; Table 2, read-out: Ki nM CB2) is reported as 1800 nM.
`CN1CCCCC1Cn1cc(C(=O)c2cnc3ccccc3c2)c2ccccc21` (stereo not drawn) [2-36] showed a Ki (CB1 receptor; [1]) of 133 nM and a Ki (CB2 receptor; Table 2, read-out: Ki nM CB2) of 8.53 nM.
`CN1CCCCC1Cn1cc(C(=O)c2cc(C(=O)O)ccc2I)c2ccccc21` (stereo not drawn) [2-47] gave a Ki (CB1 receptor; [1]) of 240 nM and a Ki (CB2 receptor; Table 2, read-out: Ki nM CB2) of 18.8 nM.
With `CN1CCCCC1Cn1cc(C(=O)c2cc(C#N)ccc2I)c2ccccc21` (stereo not drawn) [2-46] the Ki (CB1 receptor; [1]) was 339 nM and the Ki (CB2 receptor; Table 2, read-out: Ki nM CB2) was 15.4 nM.
Compound `CN1CCCC[C@@H]1Cn1cc(C(=O)c2cc([N+](=O)[O-])ccc2I)c2ccccc21` [2-7(R)] has a Ki (CB1 receptor; Ki nM CB1, Table 1, 0.8 nM [3H]CP-55,940) of 285 nM and a Ki (CB2 receptor; Ki nM CB2, Table 1) of 0.53 nM.
`CN1CCCCC1Cn1cc(C(=O)c2cc3ccccc3cn2)c2ccccc21` (stereo not drawn) [2-40] was tested, and the Ki (CB1 receptor; [1]) was 28.6 nM and the Ki (CB2 receptor; Table 2, read-out: Ki nM CB2) was 14.5 nM.
`CN1CCCCC1Cn1cc(C(=O)c2cc(O)ccc2I)c2ccccc21` (stereo not drawn) [2-49] showed a Ki (CB1 receptor; [1]) of 29.1 nM and a Ki (CB2 receptor; Table 2, read-out: Ki nM CB2) of 18.6 nM.
`CN1CCOCC1Cn1cc(C(=O)c2cccc3ccccc23)c2ccccc21` (stereo not drawn) [2-31] was tested, and the Ki (CB1 receptor; [1]) was 5.7 nM and the Ki (CB2 receptor; Table 2, read-out: Ki nM CB2) was 26.6 nM.
Work on `CN1CCCCC1Cn1cc(C(=O)c2cnccn2)c2ccccc21` (stereo not drawn) [2-37] yielded a Ki (CB1 receptor; [1]) of 3540 nM and a Ki (CB2 receptor; Table 2, read-out: Ki nM CB2) of 837 nM.
Work on `CN1CCCCC1Cn1cc(C(=O)c2cccc[n+]2[O-])c2ccccc21` (stereo not drawn) [2-43] yielded a Ki (CB1 receptor; [1]) of 8820 nM and a Ki (CB2 receptor; Table 2, read-out: Ki nM CB2) of 1860 nM.
